Results published in PubChem BioAssay (NCI).
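Each compound was tested at five concentrations against cells in 96-well plates for 48 hours. TGI: total growth inhibition.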

Key:
Assay in all cases: NCI tumour cell line growth inhibition, 48 h
MOLT-4 leukemia = system: MOLT-4 leukemia
MDA-MB-435 = system: MDA-MB-435
HT29 colon = system: HT29 colon
OVCAR-8 ovarian = system: OVCAR-8 ovarian
ACHN renal = system: ACHN renal
OVCAR-3 ovarian = system: OVCAR-3 ovarian
HCT-15 colon = system: HCT-15 colon
SK-MEL-2 melanoma = system: SK-MEL-2 melanoma
DU-145 prostate = system: DU-145 prostate
SR leukemia = system: SR leukemia
IGROV1 ovarian = system: IGROV1 ovarian

SMILES | TGI (MOLT-4 leukemia) [µM] | TGI (MDA-MB-435) [µM] | TGI (HT29 colon) [µM] | TGI (OVCAR-8 ovarian) [µM] | TGI (ACHN renal) [µM] | TGI (OVCAR-3 ovarian) [µM] | TGI (HCT-15 colon) [µM] | TGI (SK-MEL-2 melanoma) [µM] | TGI (DU-145 prostate) [µM] | TGI (SR leukemia) [µM] | TGI (IGROV1 ovarian) [µM]
CCOC(=O)N1c2ccccc2N(C(=O)OCC)C1CC(=O)/C=C/c1ccccc1 | 12.4 | 8.11 | 8.41 | 8.63 | 15.7 | 9.95 | 12.9 | 7.38 | 9.11 | 5.75 | 17.8
Cc1cc(-c2nc3cc(F)ccc3s2)ccc1N | > 100 | > 100 | > 100 | > 100 | > 87.3 | > 68 | > 100 | > 68.4 | > 92.1 | > 100 | > 100
O=C1CSC(c2ccccc2)N1c1ccc(-c2ccc(-n3c(-c4ccccc4)nc4ccccc4c3=O)cc2)cc1 (stereo not given) | > 100 | > 100 | > 100 | > 100 | > 100 | > 100 | > 100 | > 100 | > 100 | > 100 | > 100
COc1ccc2nc3cccc([N+](=O)[O-])c3c(NCCC(=O)O)c2c1 | > 10 | > 10 | > 10 | > 10 | > 10 | > 10 | > 10 | > 10 | > 10 | > 10 | > 10
Cc1nc(C)c(N2CCN(Cc3ccccc3)CC2)c(=O)[nH]1 | > 100 | > 100 | > 100 | > 100 | > 100 | > 100 | > 100 |  | > 100 | > 100 | > 100
N#CCCC1(CCC#N)S(=O)(=O)OCCOS1(=O)=O | > 100 | > 100 | > 100 | > 100 | > 100 | > 100 | > 100 | > 100 | > 100 | > 100 | 
Cc1cn(CC(=S)NCCc2c[nH]c3ccccc23)c(=O)[nH]c1=O | > 100 | > 100 | > 100 |  | > 100 | > 100 | > 100 | > 100 | > 100 | > 100 | > 100
O=C(O)C12C3CCC(C3)C1(C(=O)O)C1CCC2C1 (stereo not given) | > 100 |  | > 100 | > 100 | > 100 | > 100 | > 100 | > 100 |  | > 100 | > 100
N#CCCC(C#N)(C#N)CCC#N | > 100 |  | > 100 | > 100 | > 100 | > 100 | > 100 |  |  | > 100 | > 100
Cc1ccc(S(=O)(=O)c2ccc(C)cc2[N+](=O)[O-])c([N+](=O)[O-])c1 |  |  | > 100 | > 100 | > 100 | > 100 | > 100 | > 100 |  | > 100 | > 100
C=C1N(C)c2ccc(S(=O)(=O)c3ccc4c(c3)C(C)(C)C(=C)N4C)cc2C1(C)C | 91.7 | > 100 | > 100 | > 100 | > 100 | > 100 | > 100 | > 100 | > 100 |  | > 100
Nc1c(F)c(F)c2c(c1F)N(CCCCCl)c1ccccc1S2 | > 100 |  | > 100 |  | > 100 | > 100 | > 100 | > 100 | > 100 | > 100 | > 100
CC(CC(=O)N1C2CC3CCC2(CS1(=O)=O)C3(C)C)[Si](C)(C)C (stereo not given) | > 100 | > 100 | > 100 | > 100 | > 100 | > 100 | > 100 |  | > 100 | > 100 | > 100
c1ccc2c(c1)nc1ccccn12 | > 100 | > 100 | > 100 | > 100 | > 100 | > 100 | > 100 |  | > 100 | > 100 | > 100
CC(C)CCNC(=O)c1ccc(CNC(=O)/C=C/c2ccc3ccccc3c2)cc1 | > 100 | > 100 |  | > 100 | > 100 | > 100 | > 100 | > 100 | > 100 | > 100 | 
C1CSCCSCCSCCSCCS1 | > 100 | > 100 | > 100 | > 100 | > 100 | > 100 | > 100 | > 100 | > 100 |  | > 100
O=C1C(Cl)C(c2ccc(O)cc2)N1n1cnc2ccccc2c1=O (stereo not given) | 93.4 |  | > 68.8 | 26 | 25.6 | > 90.1 | > 100 | > 63.8 |  | 69.8 | > 100
Cc1c2c(n3c(nc4ccccc43)c1C#N)N(c1ccc(F)cc1)CC2 |  | > 100 | > 100 | > 100 | > 100 | > 100 | > 100 | > 100 | > 100 | > 100 | > 100
Cc1cc2c(cc1Cl)SC(NNCCO)=NS2(=O)=O | > 100 | > 100 | > 100 | > 100 | > 100 |  | > 100 | > 100 | > 100 | > 100 | > 100
CN1N=C(c2ccncc2)OC1c1cccc(F)c1 (stereo not given) | > 100 | > 100 | > 100 | > 100 | > 100 | > 100 | > 100 | > 100 | > 100 |  | > 100
COC(=O)C(=O)C(C(=O)OC)C(=O)C(=O)Nc1cc(Cl)c(C)cc1S(=O)(=O)O (stereo not given) | > 100 |  | > 100 | > 100 | > 100 | > 100 | > 100 | > 100 |  | > 100 | > 100
CC(=O)Oc1ccc2c(c1)[nH]c1c3ccc(OC(C)=O)cc3oc(=O)c21 | > 100 | > 100 | > 100 | > 100 | 78.3 | 71.9 | > 100 |  | > 100 | 71.7 | > 100
